From ChEMBL document CHEMBL3991601, “The target landscape of clinical kinase drugs” (Science, 2017)
The source made the active and inactive calls. For most assays here, no stated cut-off is given here; in the data, actives have a measured Kd and inactives only a lower limit.

How the values were obtained:
TGF-beta receptor type-1 = target: T1, TGF-beta receptor type-1 (Homo sapiens, UniProt P36897)
T1 sequence (P36897 whole entry): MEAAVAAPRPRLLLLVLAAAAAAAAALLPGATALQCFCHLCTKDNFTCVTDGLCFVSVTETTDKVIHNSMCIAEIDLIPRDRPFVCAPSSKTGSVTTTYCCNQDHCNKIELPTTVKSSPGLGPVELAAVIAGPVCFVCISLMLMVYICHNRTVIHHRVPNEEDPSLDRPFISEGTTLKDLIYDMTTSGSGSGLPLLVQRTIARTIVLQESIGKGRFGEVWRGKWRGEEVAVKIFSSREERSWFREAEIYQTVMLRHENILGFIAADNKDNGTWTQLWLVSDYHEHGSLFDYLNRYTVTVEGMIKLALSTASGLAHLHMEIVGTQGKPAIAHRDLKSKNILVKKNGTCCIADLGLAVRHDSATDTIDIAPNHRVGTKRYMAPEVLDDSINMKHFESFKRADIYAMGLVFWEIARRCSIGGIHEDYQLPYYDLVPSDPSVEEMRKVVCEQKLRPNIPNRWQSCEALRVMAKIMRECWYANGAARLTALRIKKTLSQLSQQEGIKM

[1] = target: T2, Long-chain-fatty-acid--CoA ligase 5 (Homo sapiens, UniProt Q9ULC5)
T2 sequence (Q9ULC5 whole entry): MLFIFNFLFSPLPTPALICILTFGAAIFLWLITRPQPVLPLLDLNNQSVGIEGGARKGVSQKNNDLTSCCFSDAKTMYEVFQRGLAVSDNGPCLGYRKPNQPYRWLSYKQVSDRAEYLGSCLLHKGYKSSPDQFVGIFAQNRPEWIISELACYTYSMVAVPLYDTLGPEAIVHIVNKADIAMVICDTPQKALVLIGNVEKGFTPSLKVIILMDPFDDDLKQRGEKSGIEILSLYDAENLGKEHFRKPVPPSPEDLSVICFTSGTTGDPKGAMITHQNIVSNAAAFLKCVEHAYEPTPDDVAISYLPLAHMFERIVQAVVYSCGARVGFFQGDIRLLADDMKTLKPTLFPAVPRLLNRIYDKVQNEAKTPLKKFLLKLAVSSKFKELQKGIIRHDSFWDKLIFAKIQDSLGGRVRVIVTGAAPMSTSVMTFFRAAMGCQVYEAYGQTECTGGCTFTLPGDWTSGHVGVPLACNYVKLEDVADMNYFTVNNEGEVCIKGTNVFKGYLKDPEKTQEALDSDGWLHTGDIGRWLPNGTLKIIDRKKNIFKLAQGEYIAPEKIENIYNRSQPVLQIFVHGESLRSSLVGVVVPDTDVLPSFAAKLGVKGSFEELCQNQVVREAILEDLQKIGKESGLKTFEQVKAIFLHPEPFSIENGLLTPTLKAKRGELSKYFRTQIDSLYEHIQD

[2] = target: T3, Serine/threonine-protein kinase TAO2 (Homo sapiens, UniProt Q9UL54)
T3 sequence (Q9UL54 whole entry): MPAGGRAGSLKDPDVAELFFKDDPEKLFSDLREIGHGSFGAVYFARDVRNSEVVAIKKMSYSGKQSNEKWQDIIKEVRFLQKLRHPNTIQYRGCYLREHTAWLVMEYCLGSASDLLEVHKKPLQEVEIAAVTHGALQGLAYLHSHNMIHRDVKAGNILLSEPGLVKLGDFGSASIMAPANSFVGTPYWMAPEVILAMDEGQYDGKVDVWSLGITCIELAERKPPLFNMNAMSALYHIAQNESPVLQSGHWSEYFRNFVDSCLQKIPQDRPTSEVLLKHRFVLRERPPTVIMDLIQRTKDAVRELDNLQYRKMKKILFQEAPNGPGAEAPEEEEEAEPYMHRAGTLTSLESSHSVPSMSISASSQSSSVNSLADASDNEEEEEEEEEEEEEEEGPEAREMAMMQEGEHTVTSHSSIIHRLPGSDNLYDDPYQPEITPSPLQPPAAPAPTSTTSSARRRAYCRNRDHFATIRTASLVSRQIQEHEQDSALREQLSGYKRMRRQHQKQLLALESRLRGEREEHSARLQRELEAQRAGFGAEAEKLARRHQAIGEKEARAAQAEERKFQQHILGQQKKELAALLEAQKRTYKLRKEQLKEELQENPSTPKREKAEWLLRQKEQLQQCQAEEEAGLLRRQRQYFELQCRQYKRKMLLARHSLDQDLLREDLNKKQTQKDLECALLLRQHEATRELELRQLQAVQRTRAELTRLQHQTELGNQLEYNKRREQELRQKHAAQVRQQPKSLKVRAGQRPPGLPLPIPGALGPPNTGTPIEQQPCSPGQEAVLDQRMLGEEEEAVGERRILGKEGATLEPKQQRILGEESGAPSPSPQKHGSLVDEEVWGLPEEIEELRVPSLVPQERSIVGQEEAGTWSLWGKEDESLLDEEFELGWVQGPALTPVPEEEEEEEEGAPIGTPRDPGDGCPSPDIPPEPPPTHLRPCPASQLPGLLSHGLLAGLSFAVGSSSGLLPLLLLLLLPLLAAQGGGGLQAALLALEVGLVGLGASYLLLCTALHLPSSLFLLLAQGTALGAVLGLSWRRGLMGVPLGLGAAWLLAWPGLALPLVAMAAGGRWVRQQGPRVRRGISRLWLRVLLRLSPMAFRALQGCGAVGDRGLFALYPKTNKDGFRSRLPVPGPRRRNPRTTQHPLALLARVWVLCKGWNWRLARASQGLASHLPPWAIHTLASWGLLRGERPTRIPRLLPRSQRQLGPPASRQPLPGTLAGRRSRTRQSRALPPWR

Measured: Kd

COc1ccc2c(OCc3nnc4ccc(-c5ccccc5)nn34)ccnc2c1 [AMG-208]
inactive: TGF-beta receptor type-1 > 30 µM | [1] > 30 µM | [2] > 30 µM
